Structures can show the parent of a compound that is named as a salt.
What was measured:
[1] = pH of the rinse water after adding rinse conditioner to the last rinse cycle of a machine wash; type: physicochemical; details: 90 mls rinse conditioner (about 200 ppm amine) in last rinse cycle
Description: (§1) The performance and stability of several amine containing liquid fabric softening compositions was tested as follows:
(§2) A wash load of 1.25 kg of terry towelling and 1.25 kg of cotton sheeting fabrics was washed at 40°C in a Miele 756 automatic with 100g of Persil Automatic (UK).

[2] = pH of the undiluted liquid rinse conditioner; details: rinse conditioner 5wt% Armeen M2HT, 1wt% tallow 35EO
Description: as §1, §2

[3] = Stability of the undiluted liquid rinse conditioner; details: rinse conditioner 5wt% Armeen M2HT, 1wt% tallow 35EO
Description: as §1, §2

[4] = pH adjuster conc 0.7 M in product
[5] = pH adjuster conc 0.9 M in product
[6] = pH adjuster conc 1.0 M in product
[7] = pH adjuster conc 0.6 M in product
[8] = pH adjuster conc 0.5 M in product
[9] = pH adjuster conc 0.3 M in product
[10] = pH adjuster conc 0.4 M in product

Cl [HCl]
rinse pH [1, 4]: 5.2 | rinse pH [1, 5]: 4.4 | rinse pH [1, 6]: 3.7 | undiluted product pH ([2]; pH adjuster conc 0.7 M): 0.2 | undiluted product pH ([2]; pH adjuster conc 1.0 M): 0.1

O=P(O)(O)O [o-H₃PO₄, orthophosphoric acid]
rinse pH [1, 7]: 5.6 | rinse pH [1, 5]: 4.6 | rinse pH ([1]; pH adjuster conc 1.2 M in product): 3.8 | undiluted product pH ([2]; pH adjuster conc 0.6 M): 1.3 | undiluted product pH ([2]; pH adjuster conc 1.2 M): 0.8

O=C(O)CC(=O)O [Malonic, malonic acid]
rinse pH [1, 8]: 5.4 | rinse pH [1, 4]: 4.7 | rinse pH [1, 5]: 3.4 | undiluted product pH ([2]; pH adjuster conc 0.7 M): 1.5 | undiluted product stability ([3]; pH adjuster conc 0.7 M): stable

O=C(O)C(=O)O [Oxalic, Oxalic acid]
rinse pH [1, 9]: 6.0 | rinse pH [1, 10]: 4.8 | rinse pH [1, 7]: 3.3 | undiluted product pH ([2]; pH adjuster conc 0.6 M): 0.8 | undiluted product stability ([3]; pH adjuster conc 0.6 M): unstable

O=C(O)C(O)C(O)C(=O)O (centres unmarked) [Tartaric, tartaric acid]
rinse pH [1, 10]: 5.7 | rinse pH [1, 8]: 4.5 | rinse pH ([1]; pH adjuster conc 0.8 M in product): 3.9

O=C(O)CC(O)(CC(=O)O)C(=O)O [Citric, citric acid]
rinse pH [1, 9]: 5.6 | rinse pH [1, 8]: 4.5 | rinse pH [1, 5]: 3.8

O=C(O)CCC(=O)O [Succinic, succinic acid]
rinse pH [1, 6]: 4.5 | rinse pH ([1]; pH adjuster conc 1.5 M in product): 4.2 | undiluted product pH ([2]; pH adjuster conc 1.0 M): 2.3 | undiluted product pH ([2]; pH adjuster conc 1.5 M): 2.2 | undiluted product stability ([3]; pH adjuster conc 1.0 M): stable | undiluted product stability ([3]; pH adjuster conc 1.5 M): stable
